Data reported in patent publication US7732487B2, “Method for treating a disease or condition responsive to opening of C1C-2 channel” (priority 2001, dated 2010).
Marks after values point to notes of the source that are not given here.

Key:
removed liver [1] = experiment: Bile amount and chloride ion in bile of removed perfused rat liver; conditions: 10 μM in Krebs-Ringer perfusate, 30 minutes, Mean ± S.E.
Method: Male Wistar rats were used. The common bile duct of both the test and the control groups were catheterized to collect bile under pentobarbital sodium anesthesia. After the catheter was inserted and fixed in the portal vein, Krebs-Ringer solution (pH 7.4, 37° C.) comprising sodium taurocolate (30 μmol/1) saturated with 95% O2 and 5% CO2 was infused at a constant flow rate of 4.0 mL/min/g liver weight by means of peristaltic pump. The liver was removed under perfusion. For the test group, test substance 2 was added to the Krebs-Ringer solution. Thirty minutes after the perfusion, the amount of bile of both the test group and the control group was measured. Chloride ion concentration in the bile was also measured. The amount of bile at 30 minutes after the administration of test substance 2 or vehicle was shown as relative value (%) to the amount immediately before the administration.

male Wistar rats [2] = experiment: Mercuric chloride induced large intestinal ulcer; assay type: in vivo, rat; conditions: for Gross Ulcer Area: 30 min before and 2 and 6 hours after HgCl2, Mean ± S.E.
Method: Mercuric chloride (HgCl2) of 4 mg/kg was intramuscularly administered to male Wistar rats (weight: 245-290 g) to induce ulcer in the large intestine. Thirty minutes before, and 2 and 6 hours after the administration of HgCl2, test substance 2 was subcutaneously administered. The control group received a vehicle. Twenty-four hours after the administration of HgCl2, the animals were bled to death under ether anesthesia. After abdominal incision, the upper portion of the ileocecal opening and the upper portion of the anus were ligated, and the large intestine region from the caecum to the rectum was removed. The removed large intestine was fixed with 1% formalin and then dissected, and the major and minor axes of ulcer were measured with a caliper under a stereoscopic microscope. The product of the major axis multiplied by the minor axis was expressed as the ulcer area. Further, the total ulcer area was calculated in each animal, which was expressed as the gross ulcer area.

male Wistar rats [3] = experiment: Taurocholic acid and trypsin induced pancreatitis, serum amylase; assay type: in vivo, rat; conditions: 100 μg/kg subcutaneous
Method: Male Wistar rats (weight: 240-270 g) that had been fasted overnight were subjected to abdominal incision under pentobarbital sodium anesthesia. Then a mixed solution of 10% taurocholic acid 3 mL and 0.3% trypsin solution 0.3 mL was antidroicly infused from the bile duct duodenum opening to induce pancreatitis. Thirty minutes before, and 2 and 4 hours after the infusion of the mixed solution of taurocholic acid and trypsin, test substance 2 was subcutaneously administered. The control group received the vehicle. Six hours after the infusion of the mixed solution of taurocholic acid and trypsin, the blood was collected to measure the serum amylase activity.

male Wistar rats [4] = experiment: Amount of bile and chloride ion concentration in bile in rats after repeated oral dosing; assay type: in vivo, rat; conditions: 100 μg/kg oral three times a day for seven days, Mean ± S.E.
Method: Test substance 2: 13,14-dihydro-15-keto-16,16-difluoro-18(S)-methyl-prostaglandin E1, which is a ClC-2 channel opener was used. Test substance 2 of 100 μg/kg was orally administered to male Wistar rats (six weeks old, weight: 180-210 g) three times a day for seven days. The control group received the same amount of the vehicle (0.01% polysorbate 80 and 0.5% ethanol in distilled water). In the following morning of the final administration day (about 17 hours after the final administration), a polyethylene catheter (PE10, Becton Dickinson and Company) was inserted into the rats' common bile duct under ether anesthesia. The rats were placed in a Borrmann's cage and were left for 1 hour to awake from anesthesia. Bile discharged during one hour from one to two hours after the insertion of the catheter was collected to measure the amount of bile. Chloride ion concentration was measured with a chloride counter (CL-7, Hiranuma Sangyo Co., Ltd.). Student's t-test was used in comparing the control group and the group receiving test substance 2. P values less than 0.05 were considered to be statistically significant.

male Wistar rats [5] = experiment: Indomethacin induced ulcer model; assay type: in vivo, rat; conditions: for Ulcer Coefficient: Mean ± S.E.
Method: (§1) Effects on acute ulcer was determined by means of water-immersion restraint stress induced ulcer model and indomethacin induced ulcer model.
(§2) Test substance 1 was orally administered to male Wistar rats (weight: 180-210 g) that had been fasted for 24 hours. In the water-immersion restraint stress induced ulcer model, 10 minutes after the oral administration of test substance 1, the rats were bound in a stress cage and immersed in water at 23° C. up to the level of their chest xiphisternums. Six hours after the immersion, the animals were killed by cervical dislocation. In the indomethacin induced ulcer model, immediately after the oral administration of test substance 1 or 2, indomethacin 10 mg/kg was orally administered. Five hours after the administration, the animals were killed by cervical dislocation. The stomachs removed from the animals were fixed with 1% formalin and then dissected along the greater curvatures. The major axis (mm) of each ulcer formed in the stomach was measured. The major axes of the ulcers in each animal were totaled, which were expressed as ulcer coefficients. Based on the ulcer coefficients of the control group and those of the groups receiving test substances, the ulcer inhibitory rates were calculated.

Beagle dogs = experiment: Cardiac output in dog model of cardiac incompetence; assay type: in vivo; conditions: 30 minutes after administration relative to immediately before, Mean ± S.E.
Method: Beagle dogs (weight: 8.8-10.3 kg) were used, and under thiopental sodium and α-chloralose anesthesia, their cardiac output was guided from a FJ probe equipped on the aortic arch via a rectangular wave electromagnetic blood flow meter (MFV-3100, Nihon Koden) to a blood flow-indicating unit and recorded in a recorder. The model of cardiac incompetence was prepared in accordance with the following method. A continuous infusion of lactate Ringer solution (5 mL/body/min) having dissolved therein DL-propranolol (0.06 mg/mL) from a catheter inserted into the left femoral vein started diastolic overload. Thirty minutes later, the left anterior descendence (LAD) was ligated. […] At the time the cardiac output was reduced by at least 20% from that before the diastolic overload, the dose of methoxamine was reduced to 5 μg/kg/min and the infusion of lactate Ringer solution was reduced to 3 mL/kg/min, which was continued until the completion of experiments. Sixty to 90 minutes after the cardiac output was reduced by at least 20% and other hemodynamic parameters were stabled, test substance 2 was administered via a cannula indwelled in the duodenum. The control group received a vehicle. […]

removed liver [6] = experiment: Organ preservation: bile flow after 16-hour cold storage and reperfusion of rat liver; conditions: 30 minutes after reperfusion, Mean ± S.D.
Method: Male Wistar rats (weight: about 280 g) were anesthetized with intraperitoneal injection of pentobarbital sodium (50 mg/kg) and hepatic-portal region was exposed by abdominal midline incision. The common bile duct was cannulated and the portal stem was inserted with a 19 gauge Surflo® needle equipped with a three way stopcock. […] The liver was cut off from the tissues around it, removed outside the body and subjected to extracorporeal perfusion. The liver was subjected to a 15-minute pre-perfusion until its oxygen consumption achieved to a constant state. Then the perfusate was replaced with an organ preservative solution (University of Wisconsin solution; (U-W solution) at 4° C. Immediately after the replacement was completed, the liver connected with the three-way stopcock was removed from the perfusion cycle and the inlet was clamped. Then the liver was put in the preservative solution (U-W solution) at the same temperature and stored for 16 hours. After the 16-hour storage, the liver was reperfused with Krebs-Ringer Buffer. Thirty minutes after the reperfusion, the amount of bile flow was measured. (1) Effect of substance 2 added to the organ preservative solution (U-W solution) In the above perfusion protocol, test substance 2 at the concentration of 10 μM was added to the preservative solution (U-W solution). […]

ddY male mice = experiment: Antianoxia effect: duration of gasping after beheading in mice; assay type: in vivo, mouse; conditions: 0.3 mg/kg subcutaneous, 30 minutes before beheading, Mean ± S.D.
Method: Test substance 1 of 0.3 mg/kg in 10 mL/kg of vehicle was subcutaneously administered to ddY male mice (5 weeks old, weight: 27-30 g). The control group received the vehicle. Thirty minutes after the administration, the mice were beheaded with guillotine. Duration of gasping shown after beheading was measured.

male Wistar rats [7] = experiment: Antipneumonedema effect, ammonium sulfate induced, in rats; assay type: in vivo, rat
Method: Test substance 1 of 0.1 or 0.01 mg/kg in 5 mL/kg of vehicle was subcutaneously administered to male Wistar rats (7 weeks old, weight: 200-250 g). The control group received the same amount of the vehicle (physiological Saline). Thirty minutes after the administration, ammonium sulfate […] was administered to the abdominal cavity of the rats. The survival rate at 30 minutes after the administration of ammonium sulfate was calculated. Animals that had survived until 30 minutes after the administration of ammonium sulfate were killed under chloroform, and their lungs were removed to measure the weights. Regarding animals that had been dead by 30 minutes after the administration of ammonium sulfate, their lungs were removed immediately after their death to measure the weights. The lung-weight of the respective groups was compared to the lung-weight of the normal group, which received no ammonium sulfate. Based on the lung-weight measurements, the inhibitory rate of lung-weight increase of the group receiving test substance 1 as compared to that of the control group was calculated.

male white rabbit = experiment: Amount of lacrimal fluid and chloride ion concentration in lacrimal fluid in rabbit; assay type: in vivo; conditions: 0.001% eye drop, 30 μL/eye, two hours after instillation, Mean ± S.E.
Method: An eye drop composition comprising 0.001% of the test substance 1 was instilled to male white rabbit in the amount of 30 μL/eye. The control group received the same amount of eye drop vehicle. […] Then the amount of lacrimal fluid was measured from the length of wetting area on the paper filter with the scale on it. […] The collected lacrimal fluid was diluted five fold with distilled water and chloride ion concentration in the lacrimal fluid was measured with a chloride counter (CL-7, Hiranuma Sangyo Co. Ltd., Japan). Student's t-test and Wilcoxon's test were used in comparing the control group and the group receiving test substance 1. P values less than 0.05 were considered to be statistically significant.

male Wistar rats [8] = experiment: Amount of intestinal fluid and chloride ion concentration in intestinal fluid in rat; assay type: in vivo; conditions: 30 minutes after administration, Mean ± S.E.
Method: Test substance 1: 13,14-dihydro-15-keto-16,16-difluoro-prostaglandin E1, which is a ClC-2 channel opener was used. The test substance 1 of 10 or 100 μg/kg in 5 mL/kg of the vehicle was orally administered to male Wistar rats (six weeks old, weight: 180-210 g) that had been fasted for at least 16 hours. The control group received the same volume of the vehicle (0.5% ethanol and 0.01% polysorbate 80 in distilled water). Thirty minutes after the administration, the animals underwent laparotomy under ether anesthesia. The first portion of the duodenum and end portion of the ileum were ligated respectively and the bowel was removed. The intestinal fluid of each animal was collected from the removed bowel and the amount was determined. After the intestinal fluid was centrifuged by 10,000×g for 5 minutes, its supernatant was collected. The chloride ion concentration in the supernatant was measured with a chloride counter (CL-7, Hiranuma Sangyo Co., Ltd.). Dunnett's test was used in comparing the control group and the test groups receiving test substance 1 in each dose. P values less than 0.05 were considered to be statistically significant.

male Wistar rats [9] = experiment: Water-immersion restraint stress induced ulcer model; assay type: in vivo, rat; conditions: for Ulcer Coefficient: Mean ± S.E.
Method: as §1, §2

## CC[C@H](C)CC(F)(F)C(=O)CC[C@H]1[C@H](O)CC(=O)[C@@H]1CCCCCCC(=O)O [Test Sub. 2, 13,14-dihydro-15-keto-16,16-difluoro-18(S)-methyl-prostaglandin E1]
Removed liver [1]
  Chloride Ion Concentration in Bile: 0.353 ± 0.009 μM/min/g liver
Removed liver [1]; relative to amount immediately before administration
  Relative Amount of Bile: 126.2 ± 9.0 %
Male Wistar rats [2]; 10 μg/kg subcutaneous
  Ulcer Inhibitory Rate: 54.3%
  Gross Ulcer Area: 15.2 ± 15.8 mm^2
Male Wistar rats [2]; 1000 μg/kg subcutaneous
  Ulcer Inhibitory Rate: 85.3%
  Gross Ulcer Area: 3.7 ± 8.3** mm^2
Male Wistar rats [3]; 30 min before and 2 and 4 hours after infusion, blood at six hours, Mean ± S.E.
  serum amylase: 2430 ± 417 IU/L
Male Wistar rats [3]; serum amylase
  Inhibitory Rate: 22.6%
Male Wistar rats [4]
  Chloride Ion Concentration in Bile: 98.4 ± 1.8 mEq/L
Male Wistar rats [4]; bile collected during one hour
  Amount of Bile: 492 ± 36.7 µL
Male Wistar rats [5]; 1 μg/kg oral
  Ulcer Inhibitory Rate: 58.7%
  Ulcer Coefficient: 35.7 ± 8.3
Male Wistar rats [5]; 3 μg/kg oral
  Ulcer Inhibitory Rate: 65.3%
  Ulcer Coefficient: 30.0 ± 4.6
Male Wistar rats [5]; 10 μg/kg oral
  Ulcer Inhibitory Rate: 77.2%
  Ulcer Coefficient: 19.7 ± 4.8
Beagle dogs; 100 μg/kg intraduodenal
  Relative Cardiac Output: 108.7 ± 0.47 %
Beagle dogs; 300 μg/kg intraduodenal
  Relative Cardiac Output: 117.8 ± 2.42 %
Removed liver [6]; 10 μM added to the perfusate during reperfusion
  Amount of Bile Flow: 2.67 ± 0.31 μL/min/g liver
Removed liver [6]; 10 μM added to the preservative solution (U-W solution)
  Amount of Bile Flow: 2.43 ± 0.10 μL/min/g liver

## CCCCC(F)(F)C(=O)CC[C@H]1[C@H](O)CC(=O)[C@@H]1CCCCCCC(=O)O [Test Sub. 1, 13,14-dihydro-15-keto-16,16-difluoro-prostaglandin E1]
ddY male mice
  Duration of Gasping: 24.1 ± 1.9
Male Wistar rats [7]; 0.01 mg/kg subcutaneous, compared to control group
  Inhibitory Rate of Lung-weight Increase: 47%
Male Wistar rats [7]; 0.1 mg/kg subcutaneous, 30 minutes after ammonium sulfate
  Surviving Rate: 60%
Male white rabbit
  Chloride Ion Concentration in Lacrimal Fluid: 152.9 ± 7.7^(##) mEq/L
Male white rabbit; Schirmer's Paper
  Amount of Lacrimal Fluid: 11.5 ± 0.7 mL
Male Wistar rats [8]; 10 μg/kg oral
  Amount of Intestinal Fluid: 3.3 ± 0.3 mL
  Chloride Ion Concentration in Intestinal Fluid: 110.1 ± 5.6 mEq/L
Male Wistar rats [8]; 100 μg/kg oral
  Amount of Intestinal Fluid: 5.3 ± 0.2 mL
  Chloride Ion Concentration in Intestinal Fluid: 126.6 ± 2.4 mEq/L
Male Wistar rats [9]; 30 μg/kg oral
  Ulcer Inhibitory Rate: 54.3%
  Ulcer Coefficient: 13.4 ± 2.0
Male Wistar rats [9]; 100 μg/kg oral
  Ulcer Inhibitory Rate: 85.3%
  Ulcer Coefficient: 4.3 ± 1.9
Male Wistar rats [5]; 2 μg/kg oral
  Ulcer Inhibitory Rate: 44%
  Ulcer Coefficient: 27.9 ± 5.1
